Measured values from patent US20240158430A1, “NOVEL COMPOUND OR SALT THEREOF, AND ANTITUMOR ACTIVATOR CONTAINING SAME AS ACTIVE INGREDIENT” (AKITA UNIVERSITY, priority 2021, published 2024).
Values joined by “and” are separate entries in the source; they are usually repeats but may differ in a detail not shown here. Identical values can stand only once. Like-named read-outs stand apart in the source and are kept apart here.

Experiments:
fatty acid synthetase = experiment: Influence on fatty acid synthetase, ELISA; format: cell-based, Human; conditions: 4 μM vs control group
Protocol: (§1) The influence of GO-Y199 on NF-kB (p65) was investigated. The method is as follows. 3×10^6 cells of the HCT116 cell line were added to a 10-cm plate, 2 μM of GO-Y199 was added after 24 hours, the cells were collected after 24 hours, embedded in iPGell (GenOStaff), and fixed in formalin, paraffin blocks were then prepared, and immuno-histochemistry was performed with an anti-NF-kB (p65) antibody. In addition, 2 μM and 5 μM of GO-Y199 were added, lysates were collected after 24 hours, and an expression level of NF-kB (p65) was analyzed using an ELISA-plate (NF-kBp65 (pS536) SimpleStep-ELISA-kit, Abcam). An amount of protein was corrected by the absorbance of A 280 nm. The upper part of FIG. 14 indicates photographs of the control group and the GO-Y199 (2 μM)-added group after 24 hours. The lower part of FIG. 14 indicates results of the t-test of these groups after 24 hours. FIG. 15 indicates the comparison results of the NF-kB inhibitory effect of GO-Y199 (2 μM, 5 μM)-added groups with respect to the control group.
The influence of GO-Y199 on fatty acid synthetase was investigated. The method is as described above. Protein quantification was performed using a Human Fatty acid synthase ELISA Kit (MyBioSource). FIG. 19 indicates the comparison result of the fatty acid synthetase inhibitory effect of the GO-Y199 (4 μM)-added group with respect to the control group.

[1] = system: gastric cancer cell line H-111-TC; experiment: Cell growth inhibitory activity, H-111-TC; format: cell-based; conditions: Table 6
Protocol: (§2) The cell growth inhibitory activity against a colorectal cancer cell line HCT116 was measured. As an index of cell growth inhibitory activity, a concentration at which cell growth was inhibited by 50% as compared with a control (IC50) was used. The method is as follows. HCT116 was added to a 6-well plate by 5×10^4, compounds having various concentrations were added after 24 hours, and the number of cells was counted after 72 hours of culture. As the control, DMSO was used in an amount equal to the amount added in accordance with the addition concentration of the highest-concentration compound. The number of cells at each concentration relative to the control was expressed as a percentage. In Table 3, the turbidities of the compounds are also indicated.
The cell growth inhibitory activity (IC50) of each of curcumin, GO-Y199, and GO-Y206 against the colorectal cancer cell lines DLD-1 and HCT116 and the gastric cancer cell lines KATO III and H-111-TC was measured. The method is as described above. FIG. 8 indicates the results of cell growth inhibitory activity of these compounds against various cancer cell lines.

β-catenin = experiment: Influence on β-catenin, ELISA; format: cell-based; conditions: control 11.5±2.3
Protocol: as §1
The influence of GO-Y199 on β-catenin was investigated. The method is as described above. Immunohistochemistry was performed with an anti-β-catenin antibody. Protein quantification was performed using an ELISA plate (proteintech). FIG. 17 indicates photographs of the control group and the GO-Y199 (2 μM)-added group after 24 hours. […]

Safety and toxicity test = format: in vivo, mouse
Protocol: In vivo safety and toxicity of GO-Y199 were investigated. The method is as follows. As described above, the equivalent of 1 mg of GO-Y199 was injected into the tail vein, blood was collected from the orbital vein 7 days later, and a hemoglobin value (Hb), the number of white blood cells (WBC), and the number of platelets (Plt) were measured with Cell tac MEK-5258 (available from Nihon Kohden Corporation). A creatinine value (Cre), a total bilirubin value (T-Bil), and an AST value were subjected to outsourcing (measured in Skylight Biotech Inc.). FIG. 29 indicates change in body weight of mice after intravenous injection. FIG. 30 indicates photographs of the tail of the mouse after intravenous injection.

[2] = system: colorectal cancer cell line DLD-1; experiment: Cell growth inhibitory activity, DLD-1; format: cell-based
Protocol: as §2, with “percentage.” for “percentage. In Table 3, the turbidities of the compounds are also indicated.”
(§3) The method is as described above.
The cell growth inhibitory activity (IC50) of each of curcumin, GO-Y199, and GO-Y206 against the colorectal cancer cell lines DLD-1 and HCT116 and the gastric cancer cell lines KATO III and H-111-TC was measured. The method is as described above.

[3] = system: apoptosis-related protein; experiment: Apoptosis-related protein, M30 Apotosense ELISA; format: cell-based; conditions: control 360 U/L
Protocol: as §1
The influence of GO-Y199 on Caspase 3 was investigated. The method is as described above. Immunohistochemistry was performed with an anti-Caspase 3 antibody. Quantification of apoptosis-related protein was performed using M30 Apotosense ELISA (PEVIVA). The upper part of FIG. 20 indicates photographs of the control group and the GO-Y199 (2 μM)-added group after 24 hours. […]

[4] = system: breast cancer cell line HCC70; experiment: Cell growth inhibitory activity, HCC70; format: cell-based
Protocol: [The source words this procedure for another cell line and reports this cell line under the same test.] as §2, with “percentage.” for “percentage. In Table 3, the turbidities of the compounds are also indicated.”
as §3

[5] = system: gastric cancer cell line GCIY; experiment: Cell growth inhibitory activity, GCIY; format: cell-based
Protocol: [The source words this procedure for another cell line and reports this cell line under the same test.] as §2, with “percentage.” for “percentage. In Table 3, the turbidities of the compounds are also indicated.”
as §3

[6] = individual mice, 7 days after 1 mg iv

COCOc1cc(/C=C/C(=O)CC(SCCOCCOCCOCCOCc2cn([C@@H]3O[C@H](CO)[C@@H](O[C@@H]4O[C@H](CO)[C@H](O)[C@H](O)[C@H]4O)[C@H](O)[C@H]3O)nn2)c2cc(OCOC)cc(OCOC)c2)cc(OCOC)c1 (stereo partly shown) [GO-Y199]
fatty acid synthetase inhibitory effect (fatty acid synthetase): significant fatty acid synthetase inhibitory effect | IC50 [1]: 2.9 µM | relative expression level of β-catenin (β-catenin; 2 μM): 2.8±0.8 | relative expression level of β-catenin (β-catenin; 5 μM): 3.9±1.1 | Cre (mg/dL) Ave. ± SD (Safety and toxicity test; 7 days after 1 mg iv, control 0.24 ± 0.15): 0.15 ± 0.02 mg/dL | T-Bil (mg/dL) Ave. ± SD (Safety and toxicity test; 7 days after 1 mg iv, control 0.47 ± 0.17): 0.33 ± 0.19 mg/dL | AST (U/L) Ave. ± SD (Safety and toxicity test; 7 days after 1 mg iv, control 65.0 ± 9.1): 62.0 ± 8.6 U/L | hematology and blood chemistry vs control group (Safety and toxicity test; Tables 12 and 13): no significant difference | body weight vs control group (Safety and toxicity test; after intravenous injection): no difference in body weight | local finding in the tails (Safety and toxicity test; after tail vein injection): no local abnormal finding | AST (U/L) (Safety and toxicity test; [6]): 63 U/L and 72 U/L and 51 U/L | Cre (Safety and toxicity test; [6]): 0.18 mg/dL and 0.14 mg/dL and 0.13 mg/dL | T-Bil (Safety and toxicity test; [6]): 0.2 mg/dL (2×) and 0.6 mg/dL | overall safety (Safety and toxicity test; mouse model): safe | IC50 ([2]; Table 4, 72 hours, read-out: IC50 DLD-1): 0.26 µM | GO-Y199 vs GO-Y030 (IC50 comparison), DLD-1 ([2]; Table 5, ratio of IC50): 0.36 | GO-Y199 vs curcumin (IC50 comparison), DLD-1 ([2]; Table 5, ratio of IC50): 0.014 | IC50 ([2]; Table 6, read-out: IC50 (μM) DLD-1): 0.85 µM | apoptosis-related protein activity (M30) ([3]; 2 μM): 1,830 U/L | apoptosis-related protein activity (M30) ([3]; 5 μM): 2,050 U/L | IC50 ([4]; Table 4, 72 hours): 540 nM | GO-Y199 vs GO-Y030 (IC50 comparison), HCC70 ([4]; Table 5, ratio of IC50): 0.24 | IC50 ([5]; Table 4, 72 hours): 160 nM | GO-Y199 vs GO-Y030 (IC50 comparison), GCIY ([5]; Table 5, ratio of IC50): 1.24 | GO-Y199 vs curcumin (IC50 comparison), GCIY ([5]; Table 5, ratio of IC50): 0.03
